Among the data in US7868188B2, “5-heteroaryl thiazoles and their use as PI3K inhibitors” (AstraZeneca AB, priority 2004, dated 2011) are IC50 values, retold here.

In the test the target is mTOR PI kinase-related kinase (Homo sapiens, UniProt P42345). Kind of test: Test (b) In Vitro mTOR PI Kinase-Related Kinase Assay (AlphaScreen). Format: biochemical. To be noted: read-out: IC50 versus mTOR PI kinase-related kinase. Here is the method:
The assay used AlphaScreen technology (Gray et al., Analytical Biochemistry, 2003, 313: 234-245) to determine the ability of test compounds to inhibit phosphorylation by recombinant mTOR.
The HEK293 FLAG-tagged mTOR (1362-2549) stable cell line was routinely maintained at 37° C. with 5% CO2 up to a confluency of 70-90% in Dulbecco's modified Eagle's growth medium (DMEM; Invitrogen Limited, Paisley, UK Catalogue No. 41966-029) containing 10% heat-inactivated foetal calf serum (FCS; Sigma, Poole, Dorset, UK, Catalogue No. F0392), 1% L-glutamine (Gibco, Catalogue No. 25030-024) and 2 mg/ml Geneticin (G418 sulphate; Invitrogen Limited, UK Catalogue No. 10131-027). Following expression in the mammalian HEK293 cell line, expressed protein was purified using the FLAG epitope tag using standard purification techniques.
Test compounds were prepared as 10 mM stock solutions in DMSO and diluted into water as required to give a range of final assay concentrations. Aliquots (2 μl) of each compound dilution were placed into a well of a Greiner 384-well low volume (LV) white polystyrene plate (Greiner Bio-one). […]
Each reaction was stopped by the addition of 10 μl of a mixture of EDTA (50 mM), bovine serum albumin (BSA; 0.5 mg/ml) and Tris-HCl pH7.4 buffer (50 mM) containing p70 S6 Kinase (T389) 1A5 Monoclonal Antibody (Cell Signalling Technology, Catalogue No. 9206B) and AlphaScreen Streptavidin donor and Protein A acceptor beads (200 ng; Perkin Elmer, Catalogue No. 6760002B and 6760137R respectively) were added and the assay plates were left for about 20 hours at room temperature in the dark. The resultant signals arising from laser light excitation at 680 nm were read using a Packard Envision instrument.
Phosphorylated biotinylated peptide is formed in situ as a result of mTOR mediated phosphorylation. […] Upon laser light excitation at 680 nm, the donor bead: acceptor bead complex produces a signal that can be measured. […]
mTOR enzyme inhibition for a given test compound was expressed as an IC50 value.

Where a name gives a salt, the structure may show the parent alone.

Chain of mTOR PI kinase-related kinase (P42345 1362-2549): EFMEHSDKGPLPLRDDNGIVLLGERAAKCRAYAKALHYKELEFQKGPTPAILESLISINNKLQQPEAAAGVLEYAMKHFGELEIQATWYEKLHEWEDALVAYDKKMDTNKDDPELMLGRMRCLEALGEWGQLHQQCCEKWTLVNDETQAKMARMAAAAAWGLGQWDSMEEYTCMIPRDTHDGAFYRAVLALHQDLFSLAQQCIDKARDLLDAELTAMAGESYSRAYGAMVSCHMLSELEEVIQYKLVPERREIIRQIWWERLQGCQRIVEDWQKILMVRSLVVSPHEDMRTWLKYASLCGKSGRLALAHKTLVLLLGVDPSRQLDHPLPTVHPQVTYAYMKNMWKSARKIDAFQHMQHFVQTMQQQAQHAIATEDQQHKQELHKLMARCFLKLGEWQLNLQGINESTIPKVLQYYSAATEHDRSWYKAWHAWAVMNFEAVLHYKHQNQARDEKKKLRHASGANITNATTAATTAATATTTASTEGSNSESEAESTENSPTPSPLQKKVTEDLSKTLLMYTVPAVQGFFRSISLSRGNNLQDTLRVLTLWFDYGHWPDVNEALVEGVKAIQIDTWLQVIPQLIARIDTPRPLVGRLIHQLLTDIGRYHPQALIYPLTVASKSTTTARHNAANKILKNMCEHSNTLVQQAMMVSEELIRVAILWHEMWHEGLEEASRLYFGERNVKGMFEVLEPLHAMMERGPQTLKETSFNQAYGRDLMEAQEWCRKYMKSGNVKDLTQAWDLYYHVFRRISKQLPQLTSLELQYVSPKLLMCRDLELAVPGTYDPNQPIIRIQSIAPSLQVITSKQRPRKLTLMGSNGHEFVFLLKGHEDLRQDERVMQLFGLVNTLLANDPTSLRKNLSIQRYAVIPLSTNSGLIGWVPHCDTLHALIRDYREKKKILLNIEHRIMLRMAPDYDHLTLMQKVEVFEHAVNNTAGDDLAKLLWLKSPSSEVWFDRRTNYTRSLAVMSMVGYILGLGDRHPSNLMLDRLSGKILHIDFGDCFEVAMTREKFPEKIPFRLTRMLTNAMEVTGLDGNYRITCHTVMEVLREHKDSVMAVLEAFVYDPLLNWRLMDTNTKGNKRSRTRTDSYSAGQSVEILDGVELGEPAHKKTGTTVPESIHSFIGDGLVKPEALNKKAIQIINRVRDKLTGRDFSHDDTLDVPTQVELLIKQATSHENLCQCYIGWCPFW

`CC(=O)Nc1nc(C)c(-c2cnc(Cl)c(NCc3ccc(F)cc3)c2)s1` [Compound No. 3 within Example 79, N-{5-[6-Chloro-5-(4-fluorobenzylamino)pyridin-3-yl]-4-methyl-1,3-thiazol-2-yl}acetamide]: the IC50 was around 2000 nM. With `CC(=O)Nc1nc(C)c(-c2cnc(Cl)c(S(=O)(=O)Nc3ccccc3)c2)s1` [Compound No. 4 within Example 73, N-{5-[6-Chloro-5-(N-phenylsulfamoyl)pyridin-3-yl]-4-methyl-1,3-thiazol-2-yl]acetamide] the figure was around 700 nM; with `CC(=O)Nc1nc(C)c(-c2cnc(Cl)c(NS(C)(=O)=O)c2)s1` [Example 28, N-[5-(6-Chloro-5-methylsulfonylaminopyridin-3-yl)-4-methyl-1,3-thiazol-2-yl]acetamide trifluoroacetate], around 20 nM.
